Measured values from patent US7058616B1, “Method and system for predicting resistance of a disease to a therapeutic agent using a neural network” (Virco Bvba, priority 2000, dated 2006).

Tests used:
[1] = test system: HIV-1; details: in vitro; cited from earlier work
[2] = test system: HIV-1; test: MT-4 cell viral cytopathic effect protection assay, phenotypic susceptibility of patient recombinant virus; format: cell-based
Procedure: Phenotypic susceptibility was determined using a MT-4 cell viral cytopathic effect protection assay. See, e.g., Kashiwase et al., Chemotherapy 45(1):48–55 (1999), expressly incorporated herein by reference; Larder et al., Antimicrob. Agents Chemother. 43(8):1961–1967 (1999).

CC(C)CN(C[C@@H](O)[C@H](Cc1ccccc1)NC(=O)O[C@H]1CCOC1)S(=O)(=O)c1ccc(N)cc1 [VX-478]
Effect of N88S mutation on susceptibility [1]: in vitro hypersensitivity | actual phenotype resistance level ([2]; PI test sample 1): S/S (A fold resistance of less than or equal to 4 is considered to be ‘sensitive’) | actual phenotype resistance level ([2]; PI test sample 2): S/S (A fold resistance of less than or equal to 4 is considered to be ‘sensitive’) | actual phenotype resistance level ([2]; PI test sample 3): S/S (A fold resistance of less than or equal to 4 is considered to be ‘sensitive’) | actual phenotype resistance level ([2]; PI test sample 4): I/I (greater than 4 and less than 10 is considered to be ‘intermediate’) | actual phenotype resistance level ([2]; PI test sample 6): S/S (A fold resistance of less than or equal to 4 is considered to be ‘sensitive’) | actual phenotype resistance level ([2]; PI test sample 7): S/S (A fold resistance of less than or equal to 4 is considered to be ‘sensitive’) | actual phenotype resistance level ([2]; PI test sample 8): S/S (A fold resistance of less than or equal to 4 is considered to be ‘sensitive’) | actual phenotype resistance level ([2]; PI test sample 9): S/S (A fold resistance of less than or equal to 4 is considered to be ‘sensitive’) | actual phenotype resistance level ([2]; PI test sample 10): S/S (A fold resistance of less than or equal to 4 is considered to be ‘sensitive’) | actual phenotype resistance level ([2]; PI test sample 11): S/S (A fold resistance of less than or equal to 4 is considered to be ‘sensitive’) | actual phenotype resistance level ([2]; PI test sample 12): S/S (A fold resistance of less than or equal to 4 is considered to be ‘sensitive’) | actual phenotype resistance level ([2]; PI test sample 13): I/I (greater than 4 and less than 10 is considered to be ‘intermediate’) | actual phenotype resistance level ([2]; PI test sample 14): S/S (A fold resistance of less than or equal to 4 is considered to be ‘sensitive’) | actual phenotype resistance level ([2]; PI test sample 15): S/S (A fold resistance of less than or equal to 4 is considered to be ‘sensitive’) | actual phenotype resistance level ([2]; PI test sample 16): R/R (if the value is greater than 10, it is considered to be ‘resistant’) | actual phenotype resistance level ([2]; PI test sample 18): S/S (A fold resistance of less than or equal to 4 is considered to be ‘sensitive’) | actual phenotype resistance level ([2]; PI test sample 19): S/S (A fold resistance of less than or equal to 4 is considered to be ‘sensitive’) | actual phenotype resistance level ([2]; PI test sample 20): S/S (A fold resistance of less than or equal to 4 is considered to be ‘sensitive’) | actual phenotype resistance level ([2]; PI test sample 21): S/S (A fold resistance of less than or equal to 4 is considered to be ‘sensitive’) | actual phenotype resistance level ([2]; PI test sample 22): S/S (A fold resistance of less than or equal to 4 is considered to be ‘sensitive’) | actual phenotype resistance level ([2]; PI test sample 23, listed as Amprenavir): R/R (if the value is greater than 10, it is considered to be ‘resistant’) | actual phenotype resistance level ([2]; PI test sample 24): R/R (if the value is greater than 10, it is considered to be ‘resistant’) | actual phenotype resistance level ([2]; PI test sample 26): S/S (A fold resistance of less than or equal to 4 is considered to be ‘sensitive’) | actual phenotype resistance level ([2]; PI test sample 30): I/I (greater than 4 and less than 10 is considered to be ‘intermediate’) | actual phenotype resistance level ([2]; PI test sample 31, listed as Amprenavir): R/R (if the value is greater than 10, it is considered to be ‘resistant’) | actual phenotype resistance level ([2]; PI test sample 36, listed as APV): I/I (greater than 4 and less than 10 is considered to be ‘intermediate’) | actual phenotype resistance level ([2]; PI test sample 38, listed as Amprenavir): I/I (greater than 4 and less than 10 is considered to be ‘intermediate’) | actual phenotype resistance level ([2]; PI test sample 39): I/I (greater than 4 and less than 10 is considered to be ‘intermediate’) | actual phenotype resistance level ([2]; PI test sample 44): I/I (greater than 4 and less than 10 is considered to be ‘intermediate’) | actual phenotype resistance level ([2]; PI test sample 46): I/I (greater than 4 and less than 10 is considered to be ‘intermediate’) | actual phenotype resistance level ([2]; PI test sample 49): I/I (greater than 4 and less than 10 is considered to be ‘intermediate’) | actual phenotype resistance level ([2]; Table 3 testing sample 1): S/S (A fold resistance of less than or equal to 4 is considered to be “sensitive,”) | actual phenotype resistance level ([2]; Table 3 testing sample 2): S (A fold resistance of less than or equal to 4 is considered to be “sensitive,”) | actual phenotype resistance level ([2]; Table 3 testing sample 3): S/S (A fold resistance of less than or equal to 4 is considered to be “sensitive,”) | actual phenotype resistance level ([2]; Table 3 testing sample 6): S/S (A fold resistance of less than or equal to 4 is considered to be “sensitive,”) | actual phenotype resistance level ([2]; Table 3 testing sample 7): S/S (A fold resistance of less than or equal to 4 is considered to be “sensitive,”) | actual phenotype resistance level ([2]; Table 3 testing sample 8): S/S (A fold resistance of less than or equal to 4 is considered to be “sensitive,”) | actual phenotype resistance level ([2]; Table 3 testing sample 9): S/S (A fold resistance of less than or equal to 4 is considered to be “sensitive,”) | actual phenotype resistance level ([2]; Table 3 testing sample 10): S/S (A fold resistance of less than or equal to 4 is considered to be “sensitive,”) | actual phenotype ([2]; Table 13/14 sample 4: 10I,46I,71V,77I,84V,90M, 63P,93L): S (A fold resistance of less than or equal to 4 is considered to be ‘sensitive’) | actual phenotype ([2]; Table 13/14 sample 12: 10I,36I,46I,84V,90M, 20I,63P,73C,85V): R (if the value is greater than 10, it is considered to be ‘resistant’) | actual phenotype ([2]; Table 13/14 sample 15: 46I,84V,90M, 20I,63Q): I (greater than 4 and less than 10 is considered to be ‘intermediate’) | actual phenotype ([2]; Table 13/14 sample 16: 10I,46I,77I,84V,90M, 63P,73T,93L): S (A fold resistance of less than or equal to 4 is considered to be ‘sensitive’) | actual phenotype ([2]; Table 13/14 sample 22: 10I,20R,36I,71V,73S,84V,90M, 13V,63P): I (greater than 4 and less than 10 is considered to be ‘intermediate’) | actual phenotype ([2]; Table 13/14 sample 23: 10I,46I,77I,90M, 20I,63P,73T): S (A fold resistance of less than or equal to 4 is considered to be ‘sensitive’)
